Data: US20200390783A1, “INHIBITORS OF EGFR AND METHODS OF USE THEREOF” (DANA-FARBER CANCER INSTITUTE, INC., priority 2018, published 2020)
Where two headings read alike, the source gives them in different places.

Target: EGFR T790M/L858R Ba/F3 cell line (Homo sapiens, UniProt P00533, T790M/L858R, cells depend on it)
Assay: Ba/F3 cell proliferation model (MTS assay)
Assay type: cell-based, murine
Experimental: The EGFR mutant L858R, Del E746_A750, L858R/T790M, DeE746_A750/T790M, L858R/T790M/C797S and Del/T790M/C797S Ba/F3 cells were previously described (Zhou et al., Nature 462, (2009), 1070-1074). All cell lines were maintained in RPMI 1640 (Cellgro; Mediatech Inc., Herndon, Calif.) supplemented with 10% FBS 100 units/mL penicillin, 100 units/mL streptomycin, and 2 mM glutamine. L858R cells were maintained in ACL-4 media (Invitrogen, Carlsbad, Calif.) supplemented with 5% FBS, 100 units/mL penicillin, 100 units/mL streptomycin, and 2 mM glutamine. The EGFR I941R mutation was introduced via site directed mutagenesis using the Quick Change Site-Directed Mutagenesis kit (Stratagene; La Jolla, Calif.) according to the manufacturer's instructions. All constructs were confirmed by DNA sequencing. The constructs were shuttled into the retroviral vector JP1540 using the BD Creator™ System (BD Biosciences). Ba/F3 cells were infected with retrovirus and according to standard protocols, as described previously (Zhou 2009). Stable clones were obtained by selection in puromycin (2 μg/ml).
Growth and inhibition of growth was assessed by MTS assay and was performed according to previously established methods (Zhou 2009). The MTS assay is a colorimetric method for determining the number of viable cells that is based on the bioreduction of MTS by cells to a formazan product that is soluble in cell culture medium and can be detected spectrophotometrically. […] All experimental points were set up in six wells and all experiments were repeated at least three times. […] The curves were fitted using a non-linear regression model with a sigmoidal dose response.

[1] = absence of cetuximab, read-out: Ba/F3 cellular activity (EC50) T790M/L858R
[2] = read-out: Ba/F3 cellular activity (EC50) T790M/L858R + Cetuximab, presence of 1 μg/mL cetuximab

Chain of EGFR T790M/L858R Ba/F3 cell line (P00533 whole entry T790M/L858R): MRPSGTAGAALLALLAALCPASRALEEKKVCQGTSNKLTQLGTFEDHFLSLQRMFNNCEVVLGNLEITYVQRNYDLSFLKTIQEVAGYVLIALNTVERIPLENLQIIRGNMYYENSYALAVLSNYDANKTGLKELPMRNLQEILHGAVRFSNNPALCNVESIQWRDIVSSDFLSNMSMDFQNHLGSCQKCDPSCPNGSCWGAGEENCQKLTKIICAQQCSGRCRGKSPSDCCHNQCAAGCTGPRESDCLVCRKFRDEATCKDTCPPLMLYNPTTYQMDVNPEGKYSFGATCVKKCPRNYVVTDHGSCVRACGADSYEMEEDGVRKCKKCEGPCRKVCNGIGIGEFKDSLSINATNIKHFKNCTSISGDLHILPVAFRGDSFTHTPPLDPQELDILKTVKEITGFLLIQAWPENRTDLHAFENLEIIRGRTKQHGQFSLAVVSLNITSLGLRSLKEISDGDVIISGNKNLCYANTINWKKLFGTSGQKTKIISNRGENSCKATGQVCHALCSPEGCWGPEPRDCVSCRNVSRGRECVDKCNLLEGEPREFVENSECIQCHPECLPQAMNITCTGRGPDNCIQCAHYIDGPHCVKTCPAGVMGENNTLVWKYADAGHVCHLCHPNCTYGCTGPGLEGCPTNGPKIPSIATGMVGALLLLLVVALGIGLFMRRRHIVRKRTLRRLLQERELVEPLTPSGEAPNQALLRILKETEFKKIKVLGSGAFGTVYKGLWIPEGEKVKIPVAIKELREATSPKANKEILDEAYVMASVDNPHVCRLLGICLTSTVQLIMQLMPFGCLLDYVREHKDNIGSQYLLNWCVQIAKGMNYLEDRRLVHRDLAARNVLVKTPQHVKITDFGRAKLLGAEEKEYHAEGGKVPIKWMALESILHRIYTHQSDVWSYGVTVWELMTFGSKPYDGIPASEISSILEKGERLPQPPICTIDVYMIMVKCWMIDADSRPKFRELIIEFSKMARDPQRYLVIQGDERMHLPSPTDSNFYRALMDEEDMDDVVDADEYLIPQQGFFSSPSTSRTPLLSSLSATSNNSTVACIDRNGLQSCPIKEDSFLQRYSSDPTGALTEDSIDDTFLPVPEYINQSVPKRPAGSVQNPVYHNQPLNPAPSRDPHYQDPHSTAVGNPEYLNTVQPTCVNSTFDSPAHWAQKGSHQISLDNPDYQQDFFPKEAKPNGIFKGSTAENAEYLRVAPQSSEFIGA

| Compound | EC50 [1] [nM] | EC50 [2] [nM] |
| --- | --- | --- |
| C=CC(=O)Nc1ccc2c(c1)N(Cc1ccccc1)C(=O)c1cc(-c3ccc4[nH]ccc4c3)ccc1N2 [Compound I-1] | ≥ 750 | 500 to 750 |
| O=C(CCl)Nc1ccc2c(c1)N(Cc1ccccc1)C(=O)c1cc(-c3ccc4[nH]ccc4c3)ccc1N2 [Compound I-2] | < 250 | < 250 |
| C=CC(=O)Nc1ccc2c(c1)N(Cc1ccccc1)C(=O)c1cc(-c3ccc(N4CCNCC4)cc3)ccc1N2 [Compound I-3, N-(10-Benzyl-11-oxo-2-(4-(piperazin-1-yl)phenyl)-10,11-dihydro-5H-dibenzo[b,e][1,4]diazepin-8-yl)acrylamide] | ≥ 750 | ≥ 750 |
| O=C1c2cc(Br)ccc2Nc2ccc(F)cc2N1Cc1ccccc1 [I-a, 10-Benzyl-2-bromo-8-fluoro-5,10-dihydro-11H-dibenzo[b,e][1,4]diazepin-11-one] | ≥ 750 | 250 to 500 |
